One data set has as its target SYK kinase (Homo sapiens, UniProt P43405). Kind of data set: SYK kinase assay (HTRF KinEASE-TK). The note with it: class symbols, read-out: Syk inhibition IC50. It is filed as biochemical. As for the experimental part: A homogeneous time-resolved fluorescence (HTRF) assay was performed to assess the potential inhibitory effect of compounds on SYK kinase. The HTRF KinEASE-TK kit (Cisbio) was used. During the step, kinase will phosphorylate the substrate, and the resulting fluorescence signal is proportional to the phosphorylation level. The assay was performed in the following steps: First, the testing compounds were diluted 1:3 in succession in DMSO. The 1× kinase buffer contained 1 volume of 5× enzymatic buffer with 4 volumes of distilled water, 5 mM MgCl2, 1 mM MnCl2, and 1 mM DTT. The assays were assembled in 384 well plates (784075, Greiner) where 10 nl of compound solutions were added into each well, and the plates were centrifuged at 1000 g for 1 min. Then, 5 μl of 2×SYK in 1× kinase buffer were added to each well. The plates were centrifuged at 1000 g for 30 s and then incubated at room temperature for 10 min. The reaction was initiated by adding […] of premixed 2×TK-substrate-biotin and ATP mixture in 1× kinase buffer to the assay plates. The plates were centrifuged at 1000 g for 30 s and incubated at room temperature for 30 min. Phosphorylation was detected by adding 5 μl of 4×Sa-XL 665 in HTRF detection buffer into each well of the assay plates. The plates were centrifuged plates at 1000 g for 30 sec, and then incubated at room temperature for 1 h. Finally, the plates were read on an Envision 2104 plate reader (PerkinElmer) and the fluorescence signal was measured at 615 nm (Cryptate) and 665 nm (XL665).
A ratio (665/615 nm) was calculated for each well. The inhibition ratio was calculated as follow: […]
IC50 was calculated by fitting % Inhibition values and log of compound concentrations to nonlinear regression (dose response−variable slope) with GraphPad 6.0.

Data set [1] in a line: In vivo pharmacokinetic analysis, single dose, ICR mice. The note with it: mouse, male, plasma; for AUC(0-inf) / AUC(0-t) / Cmax / Tmax / half-life: single dose; for bioavailability: PO 10 mg/kg vs IV 2 mg/kg, read-out: F % (bioavailability). As for the experimental part: This is a single-dose study in ICR mice (male, n=9/administration) with intravenous and oral administration. Compound concentrations in plasma were measured and calculated for pharmacokinetic (PK) analysis via WinNonLin 6.4.

Another data set has as its target T1, Ba/F3-TEL-SYK cells (Homo sapiens, UniProt P43405).
T1 construct: fused on or other part: N-terminal part of TEL (ETV6) with its oligomerising PNT/SAM domain, fused before the SYK part that carries the kinase domain; P41212 (Transcription factor ETV6)
Put plainly: Ba/F3-TEL-SYK cell-based assay (CellTiter-Glo proliferation). The note with it: 72 hr, read-out: BaF3 Cell assay IC50. As for the experimental part: CellTiter-Glo® Luminescent Cell Viability Assay was used to determine the number of viable cells in culture based on quantitation of the ATP present, as an indicator of metabolically active cells. The assay was performed in the following steps: First, the testing compounds were dissolved in DMSO to make a stock solution. The stocks (10 mM) were then diluted to varying concentrations: […], 0.305 and 0.102 μM. An aliquot of 0.2 μl of diluted compounds were added to the 384 well assay plate. Second, added 40 μl of cell suspension with 800 Ba/F3-TEL-SYK cells into each well and incubated the plate at 37° C., 5% CO2 for 72 hr. Then, added 20 μl Cell Titer-Glo Reagent into each well of the cell culture plate. Mixed the contents for 2 min on an orbital shaker to lyse cells, and rest the plate at room temperature for 30 min. Finally, luminescence values were obtained using an Envision 2104 plate reader (PerkinElmer) and calculated the average data and Standard Deviation (SD) of DMSO and Reference (GS-9973, 1 μM) as high control and low control. To determine the IC50 value, fit the data using non-linear regression equation.

Where only a bound is given, the exact number is not on record here.

Usually IC50 stands for the concentration needed to halve the response being measured. The term AUC(0-inf) denotes the area under the concentration-time curve extrapolated to infinity. As a reminder, the AUC(0-t) is exposure summed from dosing to a finite time, without extrapolation to infinity. Lower therefore signals low exposure. The term Cmax denotes the peak of the concentration-time curve. Usually Tmax stands for the time from dosing to the highest level. Broadly, the half-life is how long it takes for the measured level to halve. A low value points to rapid decline. Usually bioavailability stands for the share of a dose that reaches the circulation, judged against a reference dose that is usually intravenous. On to `COc1cc(Nc2nc(-c3ccc4cn[nH]c4c3)cn3ncnc23)ccc1N1CCOCC1` [I1, 6-(1H-indazol-6-yl)-N-(3-methoxy-4-morpholinophenyl)-[1,2,4]triazolo[1,5-a]pyrazin-8-amine], for which the IC50 at SYK kinase is at most 50 nM. In data set [1] (IV Administration (2 mg/kg)), the area under the curve AUC(0-inf) turned out to be 983 ng·h/mL, the AUC(0-t) is 980 ng·h/mL, the Cmax stood at 2520 ng/mL and the Tmax is 4.8 min. The compound further had a half-life in data set [1] (IV Administration (2 mg/kg)) of 15 min. In addition, in data set [1] (PO Administration (10 mg/kg)), the AUC(0-inf) is 448 ng·h/mL, the AUC(0-t) was found to be 381 ng·h/mL, the peak level (Cmax) was 88.8 ng/mL and the Tmax was found to be 30 min. This compound gave a half-life in data set [1] (PO Administration (10 mg/kg)) of 54 min. The bioavailability in data set [1] stood at 7.77%. Also, the GI50 on Ba/F3-TEL-SYK cells is at most 50 nM.

Consider `COc1cc(Nc2nc(-c3ccc4cc[nH]c4c3)cn3ncnc23)ccc1N1CCOCC1` [I2, 6-(1H-indol-6-yl)-N-(3-methoxy-4-morpholinophenyl)-[1,2,4]triazolo[1,5-a]pyrazin-8-amine], for which the IC50 at SYK kinase was at most 50 nM. In data set [1] (IV Administration (2 mg/kg)), the AUC(0-inf) worked out at 1010 ng·h/mL, the area under the curve AUC(0-t) came out at 1010 ng·h/mL, the peak level (Cmax) was 1870 ng/mL and the time to peak (Tmax) was found to be 4.8 min. This compound also had a half-life in data set [1] (IV Administration (2 mg/kg)) of 34.2 min. Further, in data set [1] (PO Administration (10 mg/kg)), the AUC(0-inf) came to 2260 ng·h/mL, the AUC(0-t) was determined as 1960 ng·h/mL, the Cmax was 696 ng/mL and the Tmax came out at 15 min. The compound further gave a half-life in data set [1] (PO Administration (10 mg/kg)) of 168 min. In data set [1], the bioavailability is 38.9%. Besides, the GI50 at Ba/F3-TEL-SYK cells was at most 50 nM.

Turning to `O=C1COc2cc(-c3cn4ncnc4c(Nc4ccc(N5CCOCC5)cc4)n3)ccc2N1` [I29, 7-(8-((4-morpholinophenyl)amino)-[1,2,4]triazolo[1,5-a]pyrazin-6-yl)-2H-benzo[b][1,4]oxazin-3(4H)-one], the half-inhibitory concentration (IC50) on SYK kinase was at most 50 nM. Also, the GI50 on Ba/F3-TEL-SYK cells lay within 50 to 500 nM.

Regarding `Nc1cncc(-c2cn3ncnc3c(Nc3ccc(N4CCN(C5COC5)CC4)cc3)n2)n1` [I55, 6-(6-aminopyrazin-2-yl)-N-(4-(4-(oxetan-3-yl)piperazin-1-yl)phenyl)-[1,2,4]triazolo[1,5-a]pyrazin-8-amine], the 50% inhibitory concentration (IC50) on SYK kinase is at most 50 nM. In addition, the GI50 on Ba/F3-TEL-SYK cells fell in the range of 500 to 5000 nM.

On to `COc1cc(Nc2nc(-c3cncc(N)n3)cn3ncnc23)ccc1N1CCN(C2COC2)CC1` [I56, 6-(6-aminopyrazin-2-yl)-N-(3-methoxy-4-(4-(oxetan-3-yl)piperazin-1-yl)phenyl)-[1,2,4]triazolo[1,5-a]pyrazin-8-amine], for which the 50% inhibitory concentration (IC50) at SYK kinase was 50 to 500 nM. Also, on Ba/F3-TEL-SYK cells, the GI50 was 500 to 5000 nM.

Take `c1nc2c(Nc3ccc(N4CC5(COC5)C4)cc3)nc(-c3ccc4cn[nH]c4c3)cn2n1` [I59, N-(4-(2-oxa-6-azaspiro[3.3]heptan-6-yl)phenyl)-6-(1H-indazol-6-yl)-[1,2,4]triazolo[1,5-a]pyrazin-8-amine]: on SYK kinase, the IC50 lay within 50 to 500 nM. Also, the GI50 at Ba/F3-TEL-SYK cells fell in the range of 50 to 500 nM.

`COc1cc(Nc2nc(-c3ccc4cn[nH]c4c3)cn3ncnc23)ccc1N1CC2(COC2)C1` [I60, 6-(1H-indazol-6-yl)-N-(3-methoxy-4-(2-oxa-6-azaspiro[3.3]heptan-6-yl)phenyl)-[1,2,4]triazolo[1,5-a]pyrazin-8-amine]: the half-inhibitory concentration (IC50) on SYK kinase was in the range of 50 to 500 nM. Besides, the GI50 on Ba/F3-TEL-SYK cells is 50 to 500 nM.

As to `c1nc2c(Nc3ccc(N4CC5(COC5)C4)cc3)nc(-c3ccc4cc[nH]c4c3)cn2n1` [I61, N-(4-(2-oxa-6-azaspiro[3.3]heptan-6-yl)phenyl)-6-(1H-indol-6-yl)-[1,2,4]triazolo[1,5-a]pyrazin-8-amine], on SYK kinase, the half-inhibitory concentration (IC50) was at most 50 nM. Also, the GI50 on Ba/F3-TEL-SYK cells lay within 50 to 500 nM.

`COc1cc(Nc2nc(-c3ccc4c(c3)N=CC4)cn3ncnc23)ccc1N1CC2(COC2)C1` [I62, 6-(3H-indol-6-yl)-N-(3-methoxy-4-(2-oxa-6-azaspiro[3.3]heptan-6-yl)phenyl)-[1,2,4]triazolo[1,5-a]pyrazin-8-amine]: the 50% inhibitory concentration (IC50) on SYK kinase was at most 50 nM. Also, the GI50 at Ba/F3-TEL-SYK cells lay within 50 to 500 nM.

As to `CC(C)N1C[C@@H]2C[C@@H]1CN2c1ccc(Nc2nc(-c3ccc4[nH]ncc4c3)cn3ncnc23)cc1` [I69, 6-(1H-indazol-5-yl)-N-(4-((1S,4R)-5-isopropyl-2,5-diazabicyclo[2.2.1]heptan-2-yl)phenyl)-[1,2,4]triazolo[1,5-a]pyrazin-8-amine], the IC50 at SYK kinase was in the range of 50 to 500 nM. Besides, the GI50 at Ba/F3-TEL-SYK cells lay within 500 to 5000 nM.

For the compound `CC(C)N1C[C@@H]2C[C@@H]1CN2c1ccc(Nc2nc(-c3ccc4[nH]ccc4c3)cn3ncnc23)cc1` [I70, 6-(1H-indol-5-yl)-N-(4-((1S,4R)-5-isopropyl-2,5-diazabicyclo[2.2.1]heptan-2-yl)phenyl)-[1,2,4]triazolo[1,5-a]pyrazin-8-amine], the concentration for half-maximal inhibition (IC50) at SYK kinase is 50 to 500 nM. Moreover, the GI50 on Ba/F3-TEL-SYK cells fell in the range of 500 to 5000 nM.

For the compound `CCOc1cc(Nc2nc(-c3ccc4cn[nH]c4c3)cn3ncnc23)ccc1N1CCOCC1` [I73, N-(3-ethoxy-4-morpholinophenyl)-6-(1H-indazol-6-yl)-[1,2,4]triazolo[1,5-a]pyrazin-8-amine], at SYK kinase, the IC50 was at most 50 nM. In addition, the GI50 on Ba/F3-TEL-SYK cells lay within 50 to 500 nM.

Take `CC(C)Oc1cc(Nc2nc(-c3ccc4cn[nH]c4c3)cn3ncnc23)ccc1N1CCOCC1` [I75, 6-(1H-indazol-6-yl)-N-(3-isopropoxy-4-morpholinophenyl)-[1,2,4]triazolo[1,5-a]pyrazin-8-amine]: the IC50 on SYK kinase was 50 to 500 nM. Also, the GI50 at Ba/F3-TEL-SYK cells lay in the range of 500 to 5000 nM.

Consider `COc1cc(Nc2nc(-c3ccc4cc[nH]c4c3)cn3ncnc23)ccc1N1CC2CC1CN2C1COC1` (stereo not drawn) [I76, 6-(1H-indol-6-yl)-N-(3-methoxy-4-(5-(oxetan-3-yl)-2,5-diazabicyclo[2.2.1]heptan-2-yl)phenyl)-[1,2,4]triazolo[1,5-a]pyrazin-8-amine], for which the IC50 at SYK kinase is at most 50 nM. For the same compound, the GI50 at Ba/F3-TEL-SYK cells is 50 to 500 nM.

With `FC(F)(F)Oc1cc(Nc2nc(-c3ccc4cc[nH]c4c3)cn3ncnc23)ccc1N1CC2CC1CN2C1COC1` (stereo not drawn) [I77, 6-(1H-indol-6-yl)-N-(4-(5-(oxetan-3-yl)-2,5-diazabicyclo[2.2.1]heptan-2-yl)-3-(trifluoromethoxy)phenyl)-[1,2,4]triazolo[1,5-a]pyrazin-8-amine], the concentration for half-maximal inhibition (IC50) at SYK kinase is 50 to 500 nM. The GI50 on Ba/F3-TEL-SYK cells was over 5000 nM.

In the case of `FC(F)Oc1cc(Nc2nc(-c3ccc4cc[nH]c4c3)cn3ncnc23)ccc1N1CC2CC1CN2C1COC1` (stereo not drawn) [I78, N-(3-(difluoromethoxy)-4-(5-(oxetan-3-yl)-2,5-diazabicyclo[2.2.1]heptan-2-yl)phenyl)-6-(1H-indol-6-yl)-[1,2,4]triazolo[1,5-a]pyrazin-8-amine], the IC50 on SYK kinase was at most 50 nM. The GI50 at Ba/F3-TEL-SYK cells was in the range of 500 to 5000 nM.

Turning to `CCOc1cc(Nc2nc(-c3ccc4cc[nH]c4c3)cn3ncnc23)ccc1N1CC2CC1CN2C1COC1` (stereo not drawn) [I79, N-(3-ethoxy-4-(5-(oxetan-3-yl)-2,5-diazabicyclo[2.2.1]heptan-2-yl)phenyl)-6-(1H-indol-6-yl)-[1,2,4]triazolo[1,5-a]pyrazin-8-amine], the IC50 on SYK kinase is at most 50 nM. Also, at Ba/F3-TEL-SYK cells, the GI50 was 50 to 500 nM.

Turning to `CC(C)Oc1cc(Nc2nc(-c3ccc4cc[nH]c4c3)cn3ncnc23)ccc1N1CC2CC1CN2C1COC1` (stereo not drawn) [I81, 6-(1H-indol-6-yl)-N-(3-isopropoxy-4-(5-(oxetan-3-yl)-2,5-diazabicyclo[2.2.1]heptan-2-yl)phenyl)-[1,2,4]triazolo[1,5-a]pyrazin-8-amine], the half-maximal inhibitory concentration (IC50) on SYK kinase lay in the range of 50 to 500 nM. Moreover, the GI50 on Ba/F3-TEL-SYK cells lay within 500 to 5000 nM.

Consider `c1nc2c(Nc3ccc(N4CC5CC4CN5C4COC4)cc3)nc(-c3ccc4cc[nH]c4c3)cn2n1` (stereo not drawn) [I82, 6-(1H-indol-6-yl)-N-(4-(5-(oxetan-3-yl)-2,5-diazabicyclo[2.2.1]heptan-2-yl)phenyl)-[1,2,4]triazolo[1,5-a]pyrazin-8-amine], for which the concentration for half-maximal inhibition (IC50) at SYK kinase is at most 50 nM. For the same compound, on Ba/F3-TEL-SYK cells, the GI50 was 500 to 5000 nM.

The values are drawn from patent US12577248B2, “Substituted [1,2,4]triazolo[1,5-a]pyrazines as spleen tyrosine kinase inhibitors” (NANJING RUIJIE PHARMA CO., LTD., priority 2020, dated 2026).
